The values below come from a melting point compilation (Tetko et al.; mined from patent text by program, amines drawn as free bases though some values may be those of a salt).

Structures are written as SMILES.

By melting point is commonly meant the temperature of the solid-liquid transition.

In turn, `C=CCOC(=O)c1ccc(CC(=O)OC(C)(C)C)cc1` gave a melting point of 68 to 69 °C.

In turn, `COC(OC)C(CNC(=O)c1cc2cc(O)cc([N+](=O)[O-])c2[nH]1)SCc1ccccc1` (configuration not stated) returned a melting point of 134 to 135 °C.

On to `Cn1nc(C(=O)OCC23CCCN(CC2)C3)c2ccccc21` (configuration not stated), for which the melting point was in the range of 93 to 95 °C.

Compound `O=C1NC(=C(Br)c2ccccc2)C(=O)C1=NO` yielded a melting point of 158 °C.

`C=CCc1cc2c(c(CC=C)c1O)S(=O)CN2CC=C` (configuration not stated) registered a melting point of 110 to 111 °C.

As for `CCN1CCc2cc([N+](=O)[O-])ccc21`, the melting point was in the range of 97 to 98 °C.

With `N#Cc1[nH]ccc1-c1ccccc1Cl`, the melting point is 114 to 115 °C.

For `COc1cc(C2(OC)CCOCC2)ccc1OCc1ccc2c(ccc(=O)n2C)c1`, the melting point is 172 to 173 °C.

In the case of `CNc1ccc(CN2CCN(C(c3ccccc3)c3ccccc3)CC2)cc1[N+](=O)[O-]`, the melting point came out at 121 °C.

`COc1ccc(C(O)CN2c3nc(-c4ccncc4)cc(=O)n3CCC2c2ccccc2)cc1` (configuration not stated) gave a melting point of 150 to 152 °C.

`Cc1cccc(-c2n[nH]cc2-c2ccc(F)c(-c3ccc[nH]3)c2)n1` returned a melting point of 141 to 142 °C.

The compound `CCCCCC1C=CC(c2ccc(F)c(F)c2)=CC1` (configuration not stated) yielded a melting point of 31 °C.

As to `CC(C)=C1C(=O)N(c2ccc(O)cc2)C(=O)/C1=C(/c1cc(C)sc1C)C(C)C`, the melting point is 136 to 138 °C.

The compound `CCC(NC(C)=O)c1ccc(CN2CCN(c3ccc(F)cc3F)CC2)cc1` (configuration not stated) returned a melting point of 137 to 138 °C.

In turn, `COc1ccc(-c2ccc(N3C[C@H](CNC(C)=O)OC3=O)cc2F)ccc1=O` registered a melting point of 227 to 228 °C.

On to `O=C1CCC(N2Cc3c(OCc4cc5cc(N6CCCCC6)ccc5o4)cccc3C2=O)C(=O)N1` (configuration not stated), for which the melting point lay in the range of 242 to 244 °C.

In the case of `CCCc1nc2c(N)nc3cc(OCCCCCCNS(C)(=O)=O)ccc3c2n1CCCCNS(C)(=O)=O`, the melting point lay in the range of 138 to 140 °C.

As to `CC(C)(C)OC(=O)COC1CCN(C(=O)[C@H](Cc2ccc(OC(C)(C)C)cc2)NC(=O)c2ccc(C#N)cn2)CC1`, the melting point was 122 to 123 °C.

`Cc1cn(C(C)C(=O)N(C)C)nc1-c1ccccc1Br` (configuration not stated) registered a melting point of 102 to 104 °C.

For `CC(C)n1nc(-c2sc(NC(=O)c3ccc(CNCCO)cc3)nc2-c2ccccc2)ccc1=O`, the melting point is 111 to 113 °C.

`C[C@@H]1CN(C(=O)[C@@](C)(O)C(F)(F)F)[C@@H](C)CN1S(=O)(=O)c1ccc(C(=O)N(C)C)cc1` displayed a melting point of 86 to 87 °C.

`CC(C)[C@H]1c2ccc(F)cc2CC[C@]1(O)CC(=O)N(C)CCCc1nc2ccccc2[nH]1` came in with a melting point of 132 to 138 °C.

Regarding `Cc1cc(N2CCC3(CC2)OCCO3)nn2cnnc12`, the melting point lay within 156 to 157 °C.

The compound `CS(=O)(=O)c1ccc(-c2nc(C(F)(F)F)[nH]c2-c2ccc3ccccc3c2)cc1` yielded a melting point of 228 to 230 °C.

The compound `CS(=O)(=O)Nc1cc(NC(=O)CC(=O)C(F)(F)F)c(F)cc1C#N` had a melting point of 186 to 191 °C.

The compound `COC(=O)C(CC(F)(F)F)Nc1nc(-c2ccc(Br)cc2)cs1` (configuration not stated) showed a melting point of 113 to 114 °C.

On to `N#CCCNC(=O)c1cccc(-c2cccc3cc(Cc4cccc(C(F)(F)F)c4)oc23)c1`, for which the melting point lay in the range of 154 to 155 °C.

Compound `CCOC(=O)c1cnn(-c2ccc(Cl)cc2)c1N` had a melting point of 150 to 156 °C.

Consider `Cc1cc(-n2cnnn2)ccc1[N+](=O)[O-]`, for which the melting point fell in the range of 166 to 168 °C.

`CN(C(=O)c1ccc(Cl)c(Cl)c1)c1ccccc1CCC(=O)O` showed a melting point of 149 to 150 °C.

For the compound `Cc1ccc(C2C(=O)CC(C)(C)CC2=O)c(C)c1`, the melting point fell in the range of 167 to 169 °C.

`CCOC(=O)C(CC(=O)OC1CC2CCC1(C)C2(C)C)(NC(=O)OCc1ccccc1)C(N)=O` (configuration not stated): the melting point was in the range of 105 to 106 °C.

`CC(C)(C)OC(=O)NCCc1ccc([N+](=O)[O-])cc1` registered a melting point of 94 to 95 °C.

Compound `COC(=O)C(NC(=O)c1c(F)cccc1F)c1ccc(Br)s1` (configuration not stated) registered a melting point of 123 to 124 °C.

On to `O=C(NCC1CCCCC1)c1c(Cl)ccc2nc(N3CC(O)C3)ccc12`, for which the melting point is 206 to 208 °C.

With `c1ccc2c(c1)nc1n2CCC1`, the melting point lay in the range of 86 to 88 °C.

The compound `COC(=O)[C@H](Cc1ccc(NC(=O)c2cc(C#N)ccc2Cl)cc1)NC(=O)OC(C)(C)C` registered a melting point of 185 to 187 °C.

As for `COC(=O)c1c(Cl)cc(Cl)cc1NC(=O)CSc1ccc(NC(=O)Cc2cccc(Br)c2)cc1`, the melting point was 177 to 180 °C.

As to `O=C(Nc1ccccc1)C1=C(Nc2ccccc2)COC1=O`, the melting point was in the range of 175 to 176 °C.

In turn, `COc1cc(C(=O)O)ccc1Cc1cccc2ccc(CCCCC(=O)N(C)C)cc12` came in with a melting point of 125 to 127 °C.

Regarding `CC1(C)COC(c2ccccc2-c2ccc(CO)cc2)=N1`, the melting point is 97 to 100 °C.

Regarding `CC1(C)CC(=O)C=C(c2ccc(OCC(=O)O)c(Cl)c2Cl)C1`, the melting point lay in the range of 178 to 180 °C.

With `O=C(c1ccco1)N1CCN(Cc2ccc(-c3cc4ncnc(Nc5ccc6[nH]ccc6c5)c4s3)cc2)CC1`, the melting point was in the range of 167 to 174 °C.

As for `OC1CSC(Oc2ccc(-c3ccc(F)nc3)nc2F)C(O)C1O` (configuration not stated), the melting point lay in the range of 141 to 144 °C.

`COC(=O)Cc1ccc2c(c1)CCN2C(C)=O`: the melting point lay within 104 to 105 °C.

With `CCCn1cc(-c2c(-c3ccc(F)cc3)nn3ccncc23)ccc1=O`, the melting point is 183 to 184 °C.

`Cc1cc(=O)c2c(o1)CCOC2`: the melting point was in the range of 107 to 110 °C.

Compound `NC(=O)CCC(=O)c1ccccc1` showed a melting point of 122 to 124 °C.

`CC(C)(CNC(=O)CN1CCCC1=O)N1CCCCC1` displayed a melting point of 69 °C.

On to `CCc1cc(OCc2ccc(-c3ccccc3C#N)cc2)c2c(n1)CCCC2`, for which the melting point lay within 147 to 148 °C.

`CCOc1cc(C(CS(C)(=O)=O)N2C(=O)c3cccc(N(S(C)(=O)=O)S(C)(=O)=O)c3C2=O)ccc1OC` (configuration not stated) returned a melting point of 277 to 279 °C.

In turn, `CCCc1c(OCCCS(=O)c2nc3ccc(C(=O)O)cc3[nH]2)ccc(C(C)=O)c1O` (configuration not stated) registered a melting point of 173 to 175 °C.

`CC(=O)c1cc(-c2c(Cl)ccc(C(=O)O)c2Cl)n(C)n1`: the melting point was 200 to 203 °C.

Compound `COC(=O)c1cscc1NC(=O)NCCN1CCN(c2ccccc2OC)CC1` displayed a melting point of 195 to 199 °C.

`CCn1cc(-c2nnn[nH]2)c(=O)c2cc(F)c(N3CCN(c4ncccn4)CC3)c(OC(F)F)c21` displayed a melting point of 265 to 268 °C.

`O=C(O)c1ccc(S(=O)(=O)Oc2c(Br)cc(-c3ccc(-c4c(Cc5ccccc5)sc5ccccc45)cc3)cc2Br)cc1O` had a melting point of 192 to 194 °C.

The compound `CCOc1nn(-c2cc(C(F)(F)F)ccn2)cc1CCCOc1cccc(OC(C)(C)C(=O)O)c1` returned a melting point of 98 to 99 °C.

In turn, `COc1ccc(-c2cc3ccccc3[nH]2)cc1OC` yielded a melting point of 188 °C.

Regarding `Cn1cc(C(=O)O)c(=O)c2c3cc(N4CCCC(C)(C)C4)c(F)cc3ncc21`, the melting point fell in the range of 292 to 295 °C.

`COC(=O)CP(=O)(O)C(CCc1ccccc1)NC(=O)OCc1ccccc1` (configuration not stated) gave a melting point of 143 to 147 °C.

`CC1(Cl)C(=O)N(c2cc(Cl)cc(Cl)c2)N=C1Cl` (configuration not stated) had a melting point of 77 °C.

`CCn1nc(C)c2c1NC(=O)CC2C` (configuration not stated): the melting point was 141 to 142 °C.

`CCCCCCCCCCCCCCOc1ccc(CN(C(C)=O)c2ccc(CBr)cc2)cc1`: the melting point lay within 46 to 49 °C.

For `CCCCCCNC(=O)OC1CCN(C(=O)OCCCCCCNC(=O)Oc2ccc(Oc3ccccc3)cc2)CC1`, the melting point lay within 84 to 86 °C.

In the case of `N#Cc1cccc(C2=NNCCC2n2cc(Cl)cn2)c1` (configuration not stated), the melting point is 171 °C.

Regarding `Cc1cc(C(N)C(=O)O)ccc1O` (configuration not stated), the melting point was in the range of 205 to 207 °C.

As for `O=C(CCl)Nc1ccc2c(c1)CC(=O)N2`, the melting point is 166 to 170 °C.

For the compound `CC(C)n1c(CO)c(-c2ccc(F)cc2)c(-c2ccccc2)c1C(=O)NCCc1cccnc1`, the melting point lay within 167 to 169 °C.

Compound `Cn1c(-c2cc(O)c3c(c2)C(=O)c2cccc(O)c2C3=O)nc2ccccc21` yielded a melting point of 266 to 267 °C.

`CCCCCCCCOc1ccc(-c2ccc(O)c(F)c2F)cc1`: the melting point amounted to 145 °C.

Compound `CC1(C)SCN(CCCCN2CCN(c3nc4ccccc4s3)CC2)C1=O` registered a melting point of 99.5 to 100 °C.

On to `CCOc1ccc(-n2c(Cl)ccc2-c2ccc(S(N)(=O)=O)cc2)cc1`, for which the melting point lay in the range of 124 to 125 °C.

As for `CCCc1ccc(-c2cc(F)c(-c3ccc(CC)s3)c(F)c2)cc1`, the melting point was 45 °C.

`CC(C)(C)OC(=O)Nc1cccc(Cn2nc(C(=O)O)c3c2-c2ccc(OCc4cncnc4)cc2CC3)c1` came in with a melting point of 226 °C.

As to `CC1(C)Oc2ccc(C#N)cc2C(c2ccc[nH]c2=O)C1O` (configuration not stated), the melting point is 246 to 247 °C.

In turn, `C=CCn1nc(C)c(C(=O)c2ccc(Cl)cc2Cl)c1OS(=O)(=O)c1ccc(C)cc1` had a melting point of 113 to 114 °C.

In turn, `O=C(O)COc1cccc2c1CCc1sc(Sc3ccc([N+](=O)[O-])cc3[N+](=O)[O-])nc1-2` showed a melting point of 223 to 226 °C.

As to `O=C(O)c1cc(C(=O)O)cc(N2C(=O)C=CC2=O)c1`, the melting point is greater than 300 °C.

`COC(=O)Nc1cc(OC2CCCC2)c(Cl)cc1F` yielded a melting point of 120 to 123 °C.

The compound `Nc1sc2c(c1C(=O)c1ccc(Cl)cc1)CCN(Cc1ccccc1)C2` yielded a melting point of 155 to 157 °C.

The compound `COc1cc2c(cc1OS(N)(=O)=O)CC(C)(C)N(C(=O)c1cc(OC)c(OC)c(OC)c1)C2` showed a melting point of 172 to 176 °C.

As for `O=C1COc2ccccc2C(=O)C1=CNc1ccccc1`, the melting point was 94 to 96 °C.

`COc1ccc(C(=O)C(CCC(=O)c2ccc(F)cc2)c2ccc(OC)cc2)cc1` (configuration not stated) gave a melting point of 71 to 74 °C.

Compound `O=C(O)Cc1c(C(=O)c2ccc(OC(F)(F)F)cc2)[nH]c2cc(Cl)ccc12` yielded a melting point of 166 to 168 °C.

Regarding `CS(=O)(=O)c1c(C(=O)NN=Cc2cccc3ccccc23)[nH]c2ccccc12`, the melting point was greater than 250 °C.

Turning to `C=C(n1c(=O)n(CCCl)c2ccccc21)C(F)(F)F`, the melting point was in the range of 158 to 160 °C.

The compound `COc1cc(C(O)C#Cc2c(C)nc(N)nc2N)cc(OC)c1OC` (configuration not stated) came in with a melting point of 174 to 176 °C.
